What was measured:
Assay type in all cases: in vivo
[1] = test system: giant foxtail (Setaria faberii); assay: Test A preemergence; details: Setaria faberi, pre-emergence, 240 h, preemergence, 0 to 100 scale where 0 is no effect and 100 is complete control, read-out: Foxtail, Giant plant response rating
In short: (§1)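 Ratings of 0 (no effect) to 100 (complete control) come from visual comparison with untreated controls roughly 10 d after treatment. Test chemicals, formulated in a non-phytotoxic solvent mixture with surfactant, were applied either as a preemergence directed soil spray on seeded soil or postemergence to one- to two-leaf plants 2 to 10 cm tall.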

[2] = test system: ryegrass, Italian (Italian ryegrass, Lolium multiflorum); assay: Test A preemergence; details: Lolium multiflorum, pre-emergence, 240 h, preemergence, 0 to 100 scale where 0 is no effect and 100 is complete control, read-out: Ryegrass, Italian plant response rating
In short: as §1

[3] = test system: Kochia (Kochia scoparia); assay: Test A preemergence; details: Bassia scoparia, pre-emergence, 240 h, preemergence, 0 to 100 scale where 0 is no effect and 100 is complete control, read-out: Kochia plant response rating
In short: as §1

[4] = test system: ragweed (common ragweed, Ambrosia elatior); assay: Test A preemergence; details: Ambrosia artemisiifolia, pre-emergence, 240 h, preemergence, 0 to 100 scale where 0 is no effect and 100 is complete control, read-out: Ragweed plant response rating
In short: as §1

[5] = test system: barnyardgrass (Echinochloa crus-galli); assay: Test A preemergence; details: Echinochloa crus-galli, pre-emergence, 240 h, preemergence, 0 to 100 scale where 0 is no effect and 100 is complete control, read-out: Barnyardgrass plant response rating
In short: as §1

[6] = test system: pigweed (Amaranthus retroflexus); assay: Test A preemergence; details: Amaranthus retroflexus, pre-emergence, 240 h, preemergence, 0 to 100 scale where 0 is no effect and 100 is complete control, read-out: Pigweed plant response rating
[7] = test system: Galium (catchweed bedstraw, Galium aparine); assay: Test A postemergence; details: Galium, post-emergence, 240 h, postemergence
In short: as §1

[8] = test system: giant foxtail (Setaria faberii); assay: Test A postemergence; details: Setaria faberi, post-emergence, 240 h, postemergence
In short: as §1

[9] = test system: blackgrass (Alopecurus myosuroides); assay: Test A postemergence; details: Alopecurus myosuroides, post-emergence, 240 h, postemergence
In short: as §1

[10] = test system: ryegrass, Italian (Italian ryegrass, Lolium multiflorum); assay: Test A postemergence; details: Lolium multiflorum, post-emergence, 240 h, postemergence
In short: as §1

[11] = test system: Kochia (Kochia scoparia); assay: Test A postemergence; details: Bassia scoparia, post-emergence, 240 h, postemergence
In short: as §1

[12] = test system: wheat (Triticum aestivum); assay: Test A postemergence; details: Triticum aestivum, post-emergence, 240 h, postemergence
In short: as §1

[13] = test system: ragweed (common ragweed, Ambrosia elatior); assay: Test A postemergence; details: Ambrosia artemisiifolia, post-emergence, 240 h, postemergence
In short: as §1

[14] = test system: corn (Zea mays); assay: Test A postemergence; details: Zea mays, post-emergence, 240 h, postemergence
In short: as §1

[15] = test system: barnyardgrass (Echinochloa crus-galli); assay: Test A postemergence; details: Echinochloa crus-galli, post-emergence, 240 h, postemergence
In short: as §1

[16] = test system: pigweed (Amaranthus retroflexus); assay: Test A postemergence; details: Amaranthus retroflexus, post-emergence, 240 h, postemergence
In short: as §1

[17] = 125 g ai/ha, visual injury rating, approximately 10 d

`Cc1cc([C@H]2CN(C)C(=O)[C@@H]2C(=O)Nc2cccc(F)c2F)on1` [Compound 1196] showed a pest or weed control at 125 g/ha [1, 17] of 70%, a pest or weed control at 500 g/ha ([1]; 500 g ai/ha) of 90% and a pest or weed control at 125 g/ha [2, 17] of 0%. It also gave a pest or weed control at 500 g/ha ([2]; 500 g ai/ha) of 0%, a pest or weed control at 125 g/ha [3, 17] of 0% and a pest or weed control at 500 g/ha ([3]; 500 g ai/ha) of 0%. The pest or weed control at 125 g/ha [4, 17] was 0%, the pest or weed control at 500 g/ha ([4]; 500 g ai/ha) was 0% and the pest or weed control at 125 g/ha [5, 17] was 50%. The pest or weed control at 500 g/ha ([5]; 500 g ai/ha) was 90%, the pest or weed control at 125 g/ha [6, 17] was 0% and the pest or weed control at 500 g/ha ([6]; 500 g ai/ha) was 0%. For the same molecule, the pest or weed control at 125 g/ha ([7]; 125 g ai/ha, visual injury vs untreated controls after approx. 10 d, 0 = no effect, 100 = complete control, read-out: Galium plant response rating (0 to 100 scale)) was 0%, the pest or weed control at 500 g/ha ([7]; 500 g ai/ha, 0 to 100 scale, 0 is no effect, 100 is complete control, read-out: Galium plant response rating) was 0% and the pest or weed control at 125 g/ha ([8]; 125 g ai/ha, visual injury vs untreated controls after approx. 10 d, 0 = no effect, 100 = complete control, read-out: Foxtail, Giant plant response rating (0 to 100 scale)) was 30%. For the same molecule, the pest or weed control at 500 g/ha ([8]; 500 g ai/ha, 0 to 100 scale, 0 is no effect, 100 is complete control, read-out: Foxtail, Giant plant response rating) was 80%, the pest or weed control at 125 g/ha ([9]; 125 g ai/ha, visual injury vs untreated controls after approx. 10 d, 0 = no effect, 100 = complete control, read-out: Blackgrass plant response rating (0 to 100 scale)) was 0% and the pest or weed control at 500 g/ha ([9]; 500 g ai/ha, 0 to 100 scale, 0 is no effect, 100 is complete control, read-out: Blackgrass plant response rating) was 0%. For the same molecule, the pest or weed control at 125 g/ha ([10]; 125 g ai/ha, visual injury vs untreated controls after approx. 10 d, 0 = no effect, 100 = complete control, read-out: Ryegrass, Italian plant response rating (0 to 100 scale)) was 0%, the pest or weed control at 500 g/ha ([10]; 500 g ai/ha, 0 to 100 scale, 0 is no effect, 100 is complete control, read-out: Ryegrass, Italian plant response rating) was 0% and the pest or weed control at 125 g/ha ([11]; 125 g ai/ha, visual injury vs untreated controls after approx. 10 d, 0 = no effect, 100 = complete control, read-out: Kochia plant response rating (0 to 100 scale)) was 0%. For the same molecule, the pest or weed control at 500 g/ha ([11]; 500 g ai/ha, 0 to 100 scale, 0 is no effect, 100 is complete control, read-out: Kochia plant response rating) was 0%, the plant injury at 125 g/ha ([12]; 125 g ai/ha, visual injury vs untreated controls after approx. 10 d, 0 = no effect, 100 = complete control, read-out: Wheat plant response rating (0 to 100 scale)) was 0% and the plant injury at 500 g/ha ([12]; 500 g ai/ha, 0 to 100 scale, 0 is no effect, 100 is complete control, read-out: Wheat plant response rating) was 0%. It also gave a pest or weed control at 125 g/ha ([13]; 125 g ai/ha, visual injury vs untreated controls after approx. 10 d, 0 = no effect, 100 = complete control, read-out: Ragweed plant response rating (0 to 100 scale)) of 0%, a pest or weed control at 500 g/ha ([13]; 500 g ai/ha, 0 to 100 scale, 0 is no effect, 100 is complete control, read-out: Ragweed plant response rating) of 0% and a plant injury at 125 g/ha ([14]; 125 g ai/ha, visual injury vs untreated controls after approx. 10 d, 0 = no effect, 100 = complete control, read-out: Corn plant response rating (0 to 100 scale)) of 0%. The plant injury at 500 g/ha ([14]; 500 g ai/ha, 0 to 100 scale, 0 is no effect, 100 is complete control, read-out: Corn plant response rating) was 0%, the pest or weed control at 125 g/ha ([15]; 125 g ai/ha, visual injury vs untreated controls after approx. 10 d, 0 = no effect, 100 = complete control, read-out: Barnyardgrass plant response rating (0 to 100 scale)) was 70% and the pest or weed control at 500 g/ha ([15]; 500 g ai/ha, 0 to 100 scale, 0 is no effect, 100 is complete control, read-out: Barnyardgrass plant response rating) was 90%. It also gave a pest or weed control at 125 g/ha ([16]; 125 g ai/ha, visual injury vs untreated controls after approx. 10 d, 0 = no effect, 100 = complete control, read-out: Pigweed plant response rating (0 to 100 scale)) of 0% and a pest or weed control at 500 g/ha ([16]; 500 g ai/ha, 0 to 100 scale, 0 is no effect, 100 is complete control, read-out: Pigweed plant response rating) of 0%.

Source: patent US12077503B2, “Substituted cyclic amides and their use as herbicides” (FMC CORPORATION, priority 2015, dated 2024)
